Reference: patent US9738634B2, “Heterocyclic amide compound and herbicide” (SYNGENTA PARTICIPATIONS AG, priority 2013, dated 2017)

Tests used:
Type in all cases: in vivo
Conditions in all cases: treatment dosage 320 g/ha
barnyard grass [1] = experiment: Test Example 1: weedkilling efficacy, preemergent weed treatment in the submerged state; A: barnyard grass
Summary of the method: (§1)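 Submerged pre-emergence treatment, water-surface application of compound emulsion at g/ha dosages; 4 cm flooded alluvial soil, weeds sown and 2.5-leaf rice transplanted same day. Rated after 3 weeks, greenhouse.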

bulrush [2] = experiment: Test Example 1: weedkilling efficacy, preemergent weed treatment in the submerged state; B: bulrush
Summary of the method: as §1

oval-leafed pondweed [3] = experiment: Test Example 1: weedkilling efficacy, preemergent weed treatment in the submerged state; C: oval-leafed pondweed
Summary of the method: as §1

transplanted rice = experiment: Test Example 1: preemergent weed treatment in the submerged state, effect on crop; a: transplanted rice
Summary of the method: as §1

barnyard grass [4] = experiment: Test Example 2: weedkilling efficacy, growth period weed treatment in the submerged state; A: barnyard grass
Summary of the method: (§2)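 Seedlings at 1-2 leaves in 4 cm-deep submerged alluvial soil received emulsion formulations on the water surface, dosed per hectare; effects were judged 3 weeks on.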

bulrush [5] = experiment: Test Example 2: weedkilling efficacy, growth period weed treatment in the submerged state; B: bulrush
Summary of the method: as §2

oval-leafed pondweed [6] = experiment: Test Example 2: weedkilling efficacy, growth period weed treatment in the submerged state; C: oval-leafed pondweed
Summary of the method: as §2

crabgrass [7] = experiment: Test Example 3: weedkilling efficacy through soil treatment; D: crabgrass
Summary of the method: (§3)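 Crop and weed responses were judged three weeks after a uniform surface spray of the water-diluted emulsion at the given g/ha rate. Seeds sat beneath about 1.5 cm of sterilized diluvial soil, and boxes stood in a greenhouse at 25 to 30° C.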

green foxtail [8] = experiment: Test Example 3: weedkilling efficacy through soil treatment; E: green foxtail
Summary of the method: as §3

barnyard grass [9] = experiment: Test Example 3: weedkilling efficacy through soil treatment; F: barnyard grass
Summary of the method: as §3

wild oat [10] = experiment: Test Example 3: weedkilling efficacy through soil treatment; G: wild oat
Summary of the method: as §3

black-grass [11] = experiment: Test Example 3: weedkilling efficacy through soil treatment; H: black-grass
Summary of the method: as §3

Italian ryegrass [12] = experiment: Test Example 3: weedkilling efficacy through soil treatment; I: Italian ryegrass
Summary of the method: as §3

common wind-grass [13] = experiment: Test Example 3: weedkilling efficacy through soil treatment; J: common wind-grass
Summary of the method: as §3

Indian mallow [14] = experiment: Test Example 3: weedkilling efficacy through soil treatment; K: Indian mallow
Summary of the method: as §3

redroot pigweed [15] = experiment: Test Example 3: weedkilling efficacy through soil treatment; L: redroot pigweed
Summary of the method: as §3

fig-leafed goosefoot [16] = experiment: Test Example 3: weedkilling efficacy through soil treatment; M: fig-leafed goosefoot
Summary of the method: as §3

chickweed [17] = experiment: Test Example 3: weedkilling efficacy through soil treatment; N: chickweed
Summary of the method: as §3

catchweed [18] = experiment: Test Example 3: weedkilling efficacy through soil treatment; O: catchweed
Summary of the method: as §3

birds-eye speedwell [19] = experiment: Test Example 3: weedkilling efficacy through soil treatment; p: birds-eye speedwell
Summary of the method: as §3

directly sown rice [20] = experiment: Test Example 3: soil treatment, effect on crop; b: directly sown rice
Summary of the method: as §3

corn [21] = experiment: Test Example 3: soil treatment, effect on crop; c: corn
Summary of the method: as §3

soybean [22] = experiment: Test Example 3: soil treatment, effect on crop; d: soybean
Summary of the method: as §3

wheat [23] = experiment: Test Example 3: soil treatment, effect on crop; e: wheat
Summary of the method: as §3

beet [24] = experiment: Test Example 3: soil treatment, effect on crop; f: beet
Summary of the method: as §3

rapeseed [25] = experiment: Test Example 3: soil treatment, effect on crop; g: rapeseed
Summary of the method: as §3

crabgrass [26] = experiment: Test Example 4: weedkilling efficacy by foliar treatment; D: crabgrass
Summary of the method: (§4)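 Seeds are spot-sown into sterilized diluvial soil and covered with about 1.5 cm of soil. After 14 days' greenhouse growth at 25 to 30° C, plants are sprayed on stems and leaves with diluted emulsion at the stated g/ha rate, then scored at 3 weeks.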

green foxtail [27] = experiment: Test Example 4: weedkilling efficacy by foliar treatment; E: green foxtail
Summary of the method: as §4

barnyard grass [28] = experiment: Test Example 4: weedkilling efficacy by foliar treatment; F: barnyard grass
Summary of the method: as §4

wild oat [29] = experiment: Test Example 4: weedkilling efficacy by foliar treatment; G: wild oat
Summary of the method: as §4

black-grass [30] = experiment: Test Example 4: weedkilling efficacy by foliar treatment; H: black-grass
Summary of the method: as §4

Italian ryegrass [31] = experiment: Test Example 4: weedkilling efficacy by foliar treatment; I: Italian ryegrass
Summary of the method: as §4

common wind-grass [32] = experiment: Test Example 4: weedkilling efficacy by foliar treatment; J: common wind-grass
Summary of the method: as §4

Indian mallow [33] = experiment: Test Example 4: weedkilling efficacy by foliar treatment; K: Indian mallow
Summary of the method: as §4

redroot pigweed [34] = experiment: Test Example 4: weedkilling efficacy by foliar treatment; L: redroot pigweed
Summary of the method: as §4

fig-leafed goosefoot [35] = experiment: Test Example 4: weedkilling efficacy by foliar treatment; M: fig-leafed goosefoot
Summary of the method: as §4

chickweed [36] = experiment: Test Example 4: weedkilling efficacy by foliar treatment; N: chickweed
Summary of the method: as §4

catchweed [37] = experiment: Test Example 4: weedkilling efficacy by foliar treatment; O: catchweed
Summary of the method: as §4

birds-eye speedwell [38] = experiment: Test Example 4: weedkilling efficacy by foliar treatment; p: birds-eye speedwell
Summary of the method: as §4

directly sown rice [39] = experiment: Test Example 4: foliar treatment, effect on crop; b: directly sown rice
Summary of the method: as §4

corn [40] = experiment: Test Example 4: foliar treatment, effect on crop; c: corn
Summary of the method: as §4

soybean [41] = experiment: Test Example 4: foliar treatment, effect on crop; d: soybean
Summary of the method: as §4

wheat [42] = experiment: Test Example 4: foliar treatment, effect on crop; e: wheat
Summary of the method: as §4

beet [43] = experiment: Test Example 4: foliar treatment, effect on crop; f: beet
Summary of the method: as §4

rapeseed [44] = experiment: Test Example 4: foliar treatment, effect on crop; g: rapeseed
Summary of the method: as §4

Compound: CC1=C(c2ccccc2)C(=O)N(C(C)(C)C(=O)Nc2cc(C#N)ccn2)CO1 [B-2-62]
- A (barnyard grass) weedkilling efficacy grade (barnyard grass [1]): 5 (weed kill ratio 90% or more, (practically complete withering))
- B (bulrush) weedkilling efficacy grade (bulrush [2]): 5 (weed kill ratio 90% or more, (practically complete withering))
- C (oval-leafed pondweed) weedkilling efficacy grade (oval-leafed pondweed [3]): 5 (weed kill ratio 90% or more, (practically complete withering))
- a (transplanted rice) effect on crop grade (transplanted rice): 1 (weed kill ratio 5% or more, less than 20%)
- A (barnyard grass) weedkilling efficacy grade (barnyard grass [4]): 4 (weed kill ratio 70% or more, less than 90%)
- B (bulrush) weedkilling efficacy grade (bulrush [5]): 3 (weed kill ratio 40% or more, less than 70%)
- C (oval-leafed pondweed) weedkilling efficacy grade (oval-leafed pondweed [6]): 5 (weed kill ratio 90% or more, (practically complete withering))
- D (crabgrass) weedkilling efficacy grade (crabgrass [7]): 4 (weed kill ratio 70% or more, less than 90%)
- E (green foxtail) weedkilling efficacy grade (green foxtail [8]): 4 (weed kill ratio 70% or more, less than 90%)
- F (barnyard grass) weedkilling efficacy grade (barnyard grass [9]): 3 (weed kill ratio 40% or more, less than 70%)
- G (wild oat) weedkilling efficacy grade (wild oat [10]): 3 (weed kill ratio 40% or more, less than 70%)
- H (black-grass) weedkilling efficacy grade (black-grass [11]): 3 (weed kill ratio 40% or more, less than 70%)
- I (Italian ryegrass) weedkilling efficacy grade (Italian ryegrass [12]): 4 (weed kill ratio 70% or more, less than 90%)
- J (common wind-grass) weedkilling efficacy grade (common wind-grass [13]): 5 (weed kill ratio 90% or more, (practically complete withering))
- K (Indian mallow) weedkilling efficacy grade (Indian mallow [14]): 0 (weed kill ratio 5% or less (practically no effect))
- L (redroot pigweed) weedkilling efficacy grade (redroot pigweed [15]): 2 (weed kill ratio 20% or more, less than 40%)
- M (fig-leafed goosefoot) weedkilling efficacy grade (fig-leafed goosefoot [16]): 3 (weed kill ratio 40% or more, less than 70%)
- N (chickweed) weedkilling efficacy grade (chickweed [17]): 3 (weed kill ratio 40% or more, less than 70%)
- O (catchweed) weedkilling efficacy grade (catchweed [18]): 0 (weed kill ratio 5% or less (practically no effect))
- P (birds-eye speedwell) weedkilling efficacy grade (birds-eye speedwell [19]): 4 (weed kill ratio 70% or more, less than 90%)
- b (directly sown rice) effect on crop grade (directly sown rice [20]): 0 (weed kill ratio 5% or less (practically no effect))
- c (corn) effect on crop grade (corn [21]): 0 (weed kill ratio 5% or less (practically no effect))
- d (soybean) effect on crop grade (soybean [22]): 0 (weed kill ratio 5% or less (practically no effect))
- e (wheat) effect on crop grade (wheat [23]): 0 (weed kill ratio 5% or less (practically no effect))
- f (beet) effect on crop grade (beet [24]): 0 (weed kill ratio 5% or less (practically no effect))
- g (rapeseed) effect on crop grade (rapeseed [25]): 0 (weed kill ratio 5% or less (practically no effect))
- D (crabgrass) weedkilling efficacy grade (crabgrass [26]): 3 (weed kill ratio 40% or more, less than 70%)
- E (green foxtail) weedkilling efficacy grade (green foxtail [27]): 3 (weed kill ratio 40% or more, less than 70%)
- F (barnyard grass) weedkilling efficacy grade (barnyard grass [28]): 3 (weed kill ratio 40% or more, less than 70%)
- G (wild oat) weedkilling efficacy grade (wild oat [29]): 1 (weed kill ratio 5% or more, less than 20%)
- H (black-grass) weedkilling efficacy grade (black-grass [30]): 3 (weed kill ratio 40% or more, less than 70%)
- I (Italian ryegrass) weedkilling efficacy grade (Italian ryegrass [31]): 2 (weed kill ratio 20% or more, less than 40%)
- J (common wind-grass) weedkilling efficacy grade (common wind-grass [32]): 4 (weed kill ratio 70% or more, less than 90%)
- K (Indian mallow) weedkilling efficacy grade (Indian mallow [33]): 4 (weed kill ratio 70% or more, less than 90%)
- L (redroot pigweed) weedkilling efficacy grade (redroot pigweed [34]): 4 (weed kill ratio 70% or more, less than 90%)
- M (fig-leafed goosefoot) weedkilling efficacy grade (fig-leafed goosefoot [35]): 3 (weed kill ratio 40% or more, less than 70%)
- N (chickweed) weedkilling efficacy grade (chickweed [36]): 2 (weed kill ratio 20% or more, less than 40%)
- O (catchweed) weedkilling efficacy grade (catchweed [37]): 1 (weed kill ratio 5% or more, less than 20%)
- P (birds-eye speedwell) weedkilling efficacy grade (birds-eye speedwell [38]): 4 (weed kill ratio 70% or more, less than 90%)
- b (directly sown rice) effect on crop grade (directly sown rice [39]): 0 (weed kill ratio 5% or less (practically no effect))
- c (corn) effect on crop grade (corn [40]): 0 (weed kill ratio 5% or less (practically no effect))
- d (soybean) effect on crop grade (soybean [41]): 0 (weed kill ratio 5% or less (practically no effect))
- e (wheat) effect on crop grade (wheat [42]): 0 (weed kill ratio 5% or less (practically no effect))
- f (beet) effect on crop grade (beet [43]): 0 (weed kill ratio 5% or less (practically no effect))
- g (rapeseed) effect on crop grade (rapeseed [44]): 4 (weed kill ratio 70% or more, less than 90%)
